Values of other authors, collected in paper PMC12658903 (RSC Medicinal Chemistry, 2025).

How the values were obtained:
furin = details: read-out: IC50 furin; cited from earlier work
HAT = details: read-out: IC50 (μM) HAT; cited from earlier work
TMPRSS2 = details: read-out: IC50 (μM) TMPRSS2; cited from earlier work

Compound	IC50 (furin) [nM]	IC50 (HAT) [µM]	IC50 (TMPRSS2) [µM]
N=C(N)c1ccc(/N=N/Nc2ccc(C(=N)N)cc2)cc1 [diminazen]	13200	–	–
CN(C)C(=O)COC(=O)Cc1ccc(OC(=O)c2ccc(NC(=N)N)cc2)cc1 [Camostat, camostat]	–	0.151	[…]
